Results on 1 molecule are retold here after patent publication US6605627B2, “Modulators of peroxisome proliferator activated receptor-gamma, and methods for the use thereof” (The Salk Insitute for Biological Studies, priority 1999, dated 2003).

The target in the assay is T1, GAL4-PPARγ fusion protein (Mus musculus, UniProt P37238).
T1 construct: expressed in transfected cells; host or cells: CV-1 cells
T1 sequence (P37238 163-475 isoform P37238-2): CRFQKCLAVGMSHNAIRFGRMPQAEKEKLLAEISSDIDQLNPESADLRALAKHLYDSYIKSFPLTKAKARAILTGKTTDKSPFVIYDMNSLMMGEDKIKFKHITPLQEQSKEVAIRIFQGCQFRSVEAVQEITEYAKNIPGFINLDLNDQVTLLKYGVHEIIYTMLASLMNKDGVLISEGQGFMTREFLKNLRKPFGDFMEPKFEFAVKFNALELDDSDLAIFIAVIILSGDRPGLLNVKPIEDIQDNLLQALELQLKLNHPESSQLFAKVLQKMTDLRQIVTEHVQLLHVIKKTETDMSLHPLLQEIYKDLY
In words: Screening assay for PPAR-γ antagonists (GAL4-PPARγ luciferase reporter in CV-1 cells). It is filed as cell-based. The note with it: CV-1 cells co-transfected with CMX-GAL-PPARγ and pTK-MH100x4-LUC; test compound alone or with agonist 200 nM BRL 49653; FIG. 1. As for the experimental part:
Effector plasmid, reporter plasmid, and β-galactosidase control plasmid are co-transfected into CV-1 cells at a ratio of about 1:3:5, using a liposome-mediated method, employing N-{2-(2,3)-dioleoyloxy)propyl-N,N,N-trimethyl ammonium methyl sulfate} (i.e., DOTAP, Boehlinger Mannheim) according to the manufacturer's instructions in Dulbecco's modified Eagle's medium (DMEM) with 10% delipidated hormone-depleted fetal calf serum. After about 2-3 hours, the cells are washed with DMEM and agonist (200 nM BRL 49653) and/or an appropriate test compound (LY 171883; see FIG. 1) is added to the media. After 24-48 hours of incubation, the cells are rinsed with phosphate buffered saline (pH 7.2) and lysed. Aliquots are assayed for luciferase and β-galactosidase activity. Luciferase activity is normalized to optical density units of β-galactosidase per minute of incubation.
Thus, CV-1 cells are co-transfected with CMX-GAL-PPARγ and pTK-MH100x4-LUC at a ratio of about 100 ng of receptor-encoding DNA per 10^5 cells. The usual amounts of DNA per 10^5 cells are 100 ng of CMX-GAL-PPARγ, 300 ng of pTK-MH100x4-LUC, and 500 ng of CMX-βGAL. Typically, transfections are performed in triplicate. The plates are then incubated for 2-3 hours at 37° C.
The cells are washed with fresh medium. […]
The data are expressed as relative light units (RLUs) per O.D. unit of β-galactosidase per minute. […]
(A reporter such as luciferase makes a cellular process visible.)

With `CCCc1c(OCCCCc2nnn[nH]2)ccc(C(C)=O)c1O` [LY 171883], the “relative reporter activity (functional activity at PPARγ)” value is “functional antagonist of PPARγ”.
